This is an account of results in paper doi:10.1101/2025.05.21.654962v1 (biorxiv, 2025).

Assay [1] addresses T1, NgUPPS (undecaprenyl diphosphate synthase) (Neisseria gonorrhoeae, UniProt Q5F5X2).
T1 sequence (Q5F5X2 1-248): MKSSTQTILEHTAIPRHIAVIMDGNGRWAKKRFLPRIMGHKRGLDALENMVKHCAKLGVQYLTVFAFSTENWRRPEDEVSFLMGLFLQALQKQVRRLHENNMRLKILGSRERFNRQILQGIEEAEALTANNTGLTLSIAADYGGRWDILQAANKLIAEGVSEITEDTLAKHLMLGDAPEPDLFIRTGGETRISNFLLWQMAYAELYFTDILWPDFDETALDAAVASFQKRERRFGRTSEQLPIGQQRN
Briefly: pyrophosphatase-coupled phosphate release, Biomol Green. It is filed as biochemical.

Assay [2] addresses T1, NgUPPS (undecaprenyl diphosphate synthase). Briefly: crystal structure. It is filed as binding.

In turn, `O=C(Nc1cccc(Oc2ccc(C(=O)O)c(C(=O)O)c2)c1)c1ccc(-c2ccccc2)cc1` [compound 10, 4-{3-[(biphenyl-4-ylcarbonyl)amino]phenoxy}benzene-1,2-dicarboxylic acid] showed an IC50 in assay [1] of 3.4 µM. Regarding `O=C(O)c1ccc(C(F)(F)F)cn1` [FC-0609], in assay [2] (region 4), the “crystal structure (soaking); WAC-MS hit” value was 9OJA (FC-0609).

`Nc1cc(-c2ccc(C(F)(F)F)cc2)no1` [DA-0854]: the “crystal structure (soaking); WAC-MS hit” value in assay [2] (region 4 (distal end of tunnel)) is 9OJ1 (DA-0854). With `O=C(O)c1ncccc1F` [GF-0701], in assay [2] (region 1, two sites), the “crystal structure (soaking); WAC-MS hit” value was 9OIW (GF-0701). For the molecule `Clc1ccc2nc(N3CCNCC3)sc2c1` [PS-0394], the “crystal structure (soaking); WAC-MS hit” value in assay [2] (region 3, code printed PS-0394 with the PDB id but PS-3094) is given as 9OJB (PS-0394). As for `Cc1nonc1CO` [PS-5549], the “crystal structure (soaking); WAC-MS hit” value in assay [2] (region 1, two sites) is reported as 9OHI (PS-5549). `Nc1cc(-c2cccc(C(F)(F)F)c2)no1` [DA-0841]: the “crystal structure (soaking); WAC-MS hit” value in assay [2] (region 2) was 9OIY (DA-0841). In the case of `Brc1ccc(-c2cc[nH]n2)s1` [PS-4845], the “crystal structure (soaking); WAC-MS hit” value in assay [2] (region 3) is listed as 9OI5 (PS-4845). `O=C(O)c1cn2cc(Cl)ccc2n1` [4R-0623]: in assay [2] (region 1, two sites), the “crystal structure (soaking); WAC-MS hit” value is reported as 9OHJ (4R-0623). Consider `OCc1ccccc1Cl` [PS-5485], for which, in assay [2] (region 1), the “crystal structure (soaking); WAC-MS hit” value was 9OHB (PS-5485). Turning to `Cc1ccc(O)c(-c2cc[nH]n2)c1` [BA-0843], the “crystal structure (soaking); WAC-MS hit” value in assay [2] (region 3) is reported as 9OHP (BA-0843). In the case of `Brc1ccsc1-c1ccn[nH]1` [4W-0801], in assay [2] (region 3 (hydrophobic core)), the “crystal structure (soaking); WAC-MS hit” value is recorded as 9OIV (4W-0801). Turning to `OCc1cccs1` [PS-5570], in assay [2] (region 1, two sites), the “crystal structure (soaking); WAC-MS hit” value was 9OHG (PS-5570). Turning to `O=C(O)c1cc(C(F)(F)F)ccn1` [FD-0739], the “crystal structure (soaking); WAC-MS hit” value in assay [2] (region 2) is 9OI6 (FD-0739).

Consider `NCc1cccc(O)c1` [PS-3756], for which, in assay [2] (region 1), the “crystal structure (soaking); WAC-MS hit” value is 9OHO (PS-3756). For `O=C(O)c1ccc(Br)cn1` [5Br-P], the “crystal structure (soaking); WAC-MS hit” value in assay [2] (region 2) is 9OJE (5Br-P).

Broadly, the IC50 is the concentration that inhibits the measured activity by half. A high value points to lower potency.
